These results are taken from ChEMBL document CHEMBL1129892, “Tetracyclic analogues of [+]-S 14297: Synthesis and determination of affinity and selectivity at cloned human dopamine D3 vs D2 receptors” (Bioorg Med Chem Lett, 1997).

Structures are written as SMILES. Bounds are passed on as bounds.

D(3) dopamine receptor, sequence (P35462 whole entry): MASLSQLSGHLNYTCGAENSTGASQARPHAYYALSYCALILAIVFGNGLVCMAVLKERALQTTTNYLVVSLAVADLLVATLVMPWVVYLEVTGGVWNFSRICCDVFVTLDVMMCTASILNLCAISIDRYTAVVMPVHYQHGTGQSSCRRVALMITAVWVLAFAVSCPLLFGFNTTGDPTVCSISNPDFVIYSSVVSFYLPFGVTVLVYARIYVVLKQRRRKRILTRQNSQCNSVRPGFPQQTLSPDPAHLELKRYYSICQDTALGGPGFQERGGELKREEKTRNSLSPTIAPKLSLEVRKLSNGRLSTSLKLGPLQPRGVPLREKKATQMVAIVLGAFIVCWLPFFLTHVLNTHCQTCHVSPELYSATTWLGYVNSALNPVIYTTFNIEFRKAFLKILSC

For the first experiment, the target named is D(2) dopamine receptor (Homo sapiens, UniProt P14416).
D(2) dopamine receptor, sequence (P14416 whole entry): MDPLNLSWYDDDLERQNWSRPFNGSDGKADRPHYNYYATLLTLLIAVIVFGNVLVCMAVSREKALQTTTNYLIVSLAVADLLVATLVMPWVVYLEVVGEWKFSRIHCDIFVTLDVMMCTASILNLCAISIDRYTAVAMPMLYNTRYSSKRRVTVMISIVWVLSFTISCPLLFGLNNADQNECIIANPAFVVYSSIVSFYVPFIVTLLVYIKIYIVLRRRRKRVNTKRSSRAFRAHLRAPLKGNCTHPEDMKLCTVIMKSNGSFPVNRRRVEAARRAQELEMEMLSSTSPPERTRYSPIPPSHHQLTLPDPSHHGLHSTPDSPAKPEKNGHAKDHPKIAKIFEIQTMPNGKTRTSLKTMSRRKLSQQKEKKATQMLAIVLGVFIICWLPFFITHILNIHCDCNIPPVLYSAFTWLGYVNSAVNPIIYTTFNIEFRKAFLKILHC
Assay: not given
It counts as cell membranes, CHO.
For orientation: Ki means a dissociation constant, usually derived from enzyme kinetics or from competition with a known ligand. Low values mean a stronger hold on the target, high ones a looser hold on the target. In the case of `CCCN(CCC)C1CCc2cc3c(cc2C1)OCC3` (stereo not given), the Ki is 251 nM. This counts as sub-micromolar.
As for `CC(C)CN1CCO[C@@H]2c3cc4c(cc3CC[C@H]21)CCO4`, the affinity, expressed as Ki, was 5010 nM.
Compound `CCCN1CCO[C@@H]2c3cc4c(cc3CC[C@H]21)CCO4` had a Ki of 398 nM.
The same measure, in the same setting: next, `CCCN1CCO[C@@H]2c3cc4c(cc3OC[C@H]21)CCO4`: 12600 nM; `CCCN1CCC[C@@H]2c3cc4c(cc3CC[C@H]21)CCO4`: 501 nM.
The compound `c1c2c(cc3c1CC[C@@H]1[C@@H]3OCCN1CC1CC1)OCC2` gave a Ki of 2510 nM.
As for `c1c2c(cc3c1CC[C@H]1NCCO[C@H]31)OCC2`, the affinity, expressed as Ki, was 1000 nM.
Consider `CN1CCO[C@@H]2c3cc4c(cc3CC[C@H]21)CCO4`, for which the affinity, expressed as Ki, was 398 nM.
Same read-out and setting: in the case of `CCCN1CCO[C@H]2c3cc4c(cc3CC[C@H]21)CCO4` it was greater than 10000 nM; in that of `CCCN1CCO[C@H]2c3cc4c(cc3OC[C@H]21)CCO4`, greater than 100000 nM.
Regarding `c1ccc(CN2CCO[C@@H]3c4cc5c(cc4CC[C@H]32)CCO5)cc1`, the Ki was greater than 10000 nM.
On to `c1ccc(CCN2CCO[C@@H]3c4cc5c(cc4CC[C@H]32)CCO5)cc1`, for which the Ki is greater than 10000 nM.

A further experiment concerns the target D(3) dopamine receptor (Homo sapiens, UniProt P35462). Put plainly: biochemical.
Description: Inhibition of [125 I]iodosulpiride binding to human Dopamine receptor D3 expressed in CHO cell membranes
Turning to `CCCN(CCC)C1CCc2cc3c(cc2C1)OCC3` (stereo not given), the Ki was 12.6 nM.
On the same count and under the same terms, next, `CC(C)CN1CCO[C@@H]2c3cc4c(cc3CC[C@H]21)CCO4`: 126 nM; `CCCN1CCC[C@@H]2c3cc4c(cc3CC[C@H]21)CCO4`: 25.1 nM; `c1c2c(cc3c1CC[C@@H]1[C@@H]3OCCN1CC1CC1)OCC2`: 63.1 nM.
In turn, `c1c2c(cc3c1CC[C@H]1NCCO[C@H]31)OCC2` had a Ki of 200 nM.
The same measure, in the same setting: in the case of `CN1CCO[C@@H]2c3cc4c(cc3CC[C@H]21)CCO4` it was 79.4 nM; in that of `c1ccc(CN2CCO[C@@H]3c4cc5c(cc4CC[C@H]32)CCO5)cc1`, greater than 10000 nM.
On the same count and under the same terms, in the case of `c1ccc(CCN2CCO[C@@H]3c4cc5c(cc4CC[C@H]32)CCO5)cc1` it was greater than 10000 nM.
